Test results reported in patent US20200102349A1, “PEPTIDE REAGENTS AND METHODS FOR DETECTION AND TARGETING OF DYSPLASIA, EARLY CANCER AND CANCER” (THE REGENTS OF THE UNIVERSITY OF MICHIGAN, priority 2014, published 2020).

Experiments:
SW620 cells = assay: Peptide binding to colorectal cancer cells on confocal microscopy (SW620); format: cell-based, human; settings: SW620, 5 μM, 3 min
Protocol: (§1) HT29, SW480, and SW620 cells (˜10^3) were grown on cover slips to ˜80% confluence. The cells were washed 1× with PBS and incubated with 5 μM of QRH*-Cy5.5 and PEH*-Cy5.5 for 3 min at RT. The cells were then washed 3× in PBS, fixed with 4% paraformaldehyde (PFA) for 5 min, washed 1× with PBS, and then mounted on glass slides with ProLong Gold reagent containing DAPI (Invitrogen). Confocal fluorescence images were collected with FITC, Cy5.5, and DAPI filters (Leica Inverted SPSX Confocal Microscope System) using a 63× oil-immersion objective. Fluorescence intensities from 5 cells in 2 independent images were quantified using custom Matlab (Mathworks) software.
(§2) We assessed binding of QRH*-Cy5.5 to a panel of colorectal cancer cells that vary in EGFR expression level on confocal microscopy. We observed binding of QRH*-Cy5.5 to the surface (arrows) of HT29, SW480, and SW620 cells with decreasing strength, FIG. 3A-C, scale bars 30 μm. […] Results are an average of 10 cells from 2 independent images. EGFR expression is shown on Western blot, FIG. 3H.

EGFR [1] = biological target: T1, EGFR (Homo sapiens, UniProt P00533); assay: Co-localization of EGFR peptide and anti-EGFR antibody binding on colorectal cancer cells; format: cell-based; set-up: endogenous in cells; host or cells: HT29 human colorectal adenocarcinoma cells (ATCC)
Protocol: We evaluated co-localization of binding by the QRH*-Cy5.5 peptide and a validated anti-EGFR antibody on cells that overexpress EGFR. A panel of colorectal cancer cells (HT29, SW480, and SW620) was grown on cover slips to […]. QRH*-Cy5.5 at 5 μM concentration was incubated with each cell line for 1 hour at 4° C. The cells were washed and fixed with 4% PFA for 5 min. The cells were incubated with primary anti-EGFR antibody and secondary AF488-labeled antibody, as described previously. We applied the peptide rather than the antibody to the cells first because the peptide has a lower affinity and in the lower concentration (<10 μM) is less likely to interfere with antibody binding. Confocal fluorescence images were collected with FITC, Cy5.5, and DAPI filters using a 63× oil-immersion objective.

[2] = system: human biliary tract epithelium; assay: Immunofluorescence of QRH*-Cy5.5 on human biliary tract epithelium
EGFR [3] = biological target: T1, EGFR; assay: siRNA knockdown of EGFR in HT29 cells, confocal fluorescence microscopy; format: cell-based; set-up: endogenous in cells; host or cells: HT29 human colorectal adenocarcinoma cells (ATCC)
Protocol: as §1
We used siRNA to knockdown expression of EGFR in HT29 cells. We used ON-TARGETplus human EGFR siRNA and ON-TARGETplus non-targeting pool (Thermo Scientific) per manufacturer's protocol. 5 μL of siRNA at 5 μM/L concentration was transfected into HT29 cells using DharmaFECT (Thermo Scientific). QRH*-Cy5.5 and PEH*-Cy5.5 were incubated with HT29 siEGFR and siCL cells. The cells were fixed with either 4% PFA or methanol. A 1:1000 dilution of primary monoclonal mouse anti-EGFR antibody (Thermo Scientific, # MS-396, clone 199.12, IgG2a isotype) was incubated overnight at 4° C. Afterwards, the cells were washed 3× with PBS, and further incubated with 1:500 dilution of AF488-labeled secondary goat anti-mouse IgG antibody (Life Technologies, # A-11029) for 1 hour at RT, washed 3×, and then mounted on glass slides with ProLong Gold reagent containing DAPI (Invitrogen). Confocal fluorescence images were collected with FITC, Cy5.5, and DAPI filters using a 63× oil-immersion objective.
We validated specific binding of QRH*-Cy5.5 to EGFR on siRNA knockdown in HT29 cells. On confocal microscopy, QRH*-Cy5.5 (red), FIG. 2A, and AF488-labeled anti-EGFR (green), FIG. 2B, bind strongly to the surface (arrows) of control HT29 cells (transfected with siCL, non-targeting siRNA), scale bars 30 μm. […] The results (mean±std) for QRH*-Cy5.5, anti-EGFR AF488, and PEH*-Cy5.5 to control cells (siCL) were 7.8±1.7, 3.1±1.0, and 1.6±0.3 AU, respectively, and to EGFR knockdown cells (siEGFR) were 2.5±0.8, 1.0±0.4, and 1.9±0.7 AU, respectively, *P<0.01 by paired t-test, FIG. 2G. Results are an average of 10 cells from 2 images performed independently. EGFR expression is shown on Western blot, FIG. 12H.

SW480 cells = assay: Peptide binding to colorectal cancer cells on confocal microscopy (SW480); format: cell-based, human; settings: SW480, 5 μM, 3 min
Protocol: as §1, §2

co-localization with AF488-labeled anti-EGFR antibody (EGFR [1]; HT29 cells, 5 μM): co-localize | binding on confocal microscopy (EGFR [1]; SW620 cells): Minimal binding | fluorescence intensity (mean±std) (EGFR [3]; EGFR knockdown HT29 cells (siEGFR)): 2.5±0.8 AU | fluorescence intensity (mean±std) (EGFR [3]; control HT29 cells (siCL, non-targeting siRNA)): 7.8±1.7 AU
Substance: QRHKPRE (SEQ ID NO: 1) with Cy5.5 fluorophore attached via a GGGSK linker (SEQ ID NO: 18) on the C-terminus [QRH*-Cy5.5]
fluorescence intensity of binding (mean±std) (SW620 cells): 1.0±0.3 | staining on immunofluorescence ([2]; biliary intraepithelial neoplasia (BilIN) and biliary tract cancer): intense staining | staining on immunofluorescence ([2]; normal biliary tract epithelium): minimal staining | fluorescence intensity of binding (mean±std) (SW480 cells): 2.4±0.4
